# Earlier results in patent publication US11382927B2, “Liquid medicinal preparation” (FUJIFILM Corporation, priority 2016, dated 2022).
# System: tumor
# Settings: oral administration to mice
structure (smiles),measurement,value
"Nc1ccn([C@@H]2S[C@H](CO)[C@@H](O)[C@@H]2F)c(=O)n1 [Compound A, 1-(2-deoxy-2-fluoro-4-thio-β-D-arabinofuranosyl)cytosine]",Antitumor activity,strong antitumor activity
